In brackets after ≈: the same amount, converted by molar mass.
Key:
[1] = Half life in dog liver microsomes; format: ADME, Canis lupus familiaris, Microsome
[2] = AUC in Beagle dog at 2 mg/kg, po and 1 mg/kg, iv; format: ADME, organism-based, Canis lupus familiaris; conditions: in vivo
[3] = tested on: NUGC-3; test: Antiproliferative activity against human NUGC-3 cells assessed as chemiluminescence measured after 4 days incubation by Celltiter Glo assay; conditions: NUGC-3, 96 h
[4] = Oral bioavailability in Sprague-Dawley rat at 2 mg/kg; format: ADME, organism-based; conditions: in vivo
[5] = Oral bioavailability in Beagle dog at 2 mg/kg; format: ADME, organism-based, Canis lupus familiaris; conditions: in vivo
[6] = Plasma protein binding in human; format: ADME, cell-free; conditions: read-out: PPB (converted)
[7] = cells; conditions: Homo sapiens, OVCAR-3, 96 h
Description: Antiproliferative activity against KIF18A siRNA sensitive human OVCAR-3 cells assessed as decrease in nuclei number measured after 4 days incubation by Hoechst 33342 DNA dye based nuclear count assay (NCA)

[8] = Cmax in ICR mouse at 2 mg/kg, po and 1 mg/kg, iv; format: ADME, organism-based; conditions: in vivo
[9] = molecular target: T1, Cytochrome P450 3A4 (Homo sapiens, UniProt P08684); test: Inhibition of CYP3A4 (unknown origin) assessed as reduction in midazolam metabolism; format: ADME
T1 sequence (P08684 whole entry): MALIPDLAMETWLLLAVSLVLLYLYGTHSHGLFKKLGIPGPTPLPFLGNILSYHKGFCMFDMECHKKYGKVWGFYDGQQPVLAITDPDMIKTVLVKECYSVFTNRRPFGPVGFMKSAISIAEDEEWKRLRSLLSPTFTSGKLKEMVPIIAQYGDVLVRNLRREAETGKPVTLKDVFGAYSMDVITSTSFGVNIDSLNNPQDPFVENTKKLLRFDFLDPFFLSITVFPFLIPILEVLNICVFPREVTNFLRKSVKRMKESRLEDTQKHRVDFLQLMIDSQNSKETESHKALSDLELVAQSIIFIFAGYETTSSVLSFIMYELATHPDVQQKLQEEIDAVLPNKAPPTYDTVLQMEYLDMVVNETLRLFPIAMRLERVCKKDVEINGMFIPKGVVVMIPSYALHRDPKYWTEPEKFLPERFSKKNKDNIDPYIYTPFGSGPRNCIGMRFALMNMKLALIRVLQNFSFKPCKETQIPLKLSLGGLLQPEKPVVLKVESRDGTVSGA

[10] = AUC in Balb/c mouse at 10 mg/kg, po; format: ADME, organism-based; conditions: in vivo
[11] = Permeability of compound across basolateral to apical side in human Caco-2 cells; format: ADME, cell-based; conditions: read-out: permeability
[12] = Permeability of compound across apical to basolateral side in human Caco-2 cells; format: ADME, cell-based; conditions: read-out: permeability
[13] = Solubility in compound in FassGF; format: physicochemical
[14] = Half life in monkey liver microsomes; format: ADME, Macaca mulatta, Microsome; conditions: rhesus monkey
[15] = Half life in rat liver microsomes; format: ADME, Microsome
[16] = Plasma protein binding in monkey; format: ADME, cell-free, Macaca mulatta; conditions: rhesus monkey, read-out: PPB (converted)
[17] = tested on: OVCAR-3; test: In vivo antiproliferative activity against human OVCAR-3 cells xenografted in nude Balc/c mouse tumor model assessed as tumor growth inhibition at 30 mg/kg, po measured after 21 days; format: functional; conditions: OVCAR-3, 504 h, time 21 day, read-out: TGI
[18] = Oral bioavailability in Cynomolgus monkey at 2 mg/kg; format: ADME, organism-based, Macaca fascicularis; conditions: in vivo
[19] = Toxicity in nude Balc/c mouse xenografted with human OVCAR-3 cells assessed as change in body weight at 10 to 30 mg/kg, po measured after 21 days; format: organism-based; conditions: in vivo, 504 h, dose 10-30 mg/kg, time 21 day
[20] = Half life in Balb/c mouse at 10 mg/kg, po; format: ADME, organism-based; conditions: in vivo
[21] = Plasma protein binding in rat; format: ADME, cell-free; conditions: read-out: PPB (converted)
[22] = Cmax in Balb/c mouse at 10 mg/kg, po; format: ADME, organism-based; conditions: in vivo
[23] = Solubility in compound in FessIF; format: physicochemical
[24] = Cmax in Balb/c mouse at 30 mg/kg, po; format: ADME, organism-based; conditions: in vivo
[25] = AUC in ICR mouse at 2 mg/kg, po and 1 mg/kg, iv; format: ADME, organism-based; conditions: in vivo
[26] = Cmax in Sprague-Dawley rat at 2 mg/kg, po and 1 mg/kg, iv; format: ADME, organism-based; conditions: in vivo
[27] = Plasma protein binding in dog; format: ADME, cell-free, Canis lupus familiaris; conditions: read-out: PPB (converted)
[28] = Half life in human liver microsomes; format: ADME, Microsome
[29] = Plasma protein binding in mouse; format: ADME, cell-free; conditions: read-out: PPB (converted)
[30] = Half life in Beagle dog at 2 mg/kg, po and 1 mg/kg, iv; format: ADME, organism-based, Canis lupus familiaris; conditions: in vivo
[31] = tested on: BXPC-3; test: Antiproliferative activity against human BxPC-3 cells assessed as chemiluminescence measured after 4 days incubation by Celltiter Glo assay; conditions: BXPC-3, 96 h
[32] = molecular target: Voltage-gated inwardly rectifying potassium channel KCNH2 (Homo sapiens, UniProt Q12809); test: Inhibition of hERG; format: toxicity
Chain of Voltage-gated inwardly rectifying potassium channel KCNH2 (Q12809 whole entry): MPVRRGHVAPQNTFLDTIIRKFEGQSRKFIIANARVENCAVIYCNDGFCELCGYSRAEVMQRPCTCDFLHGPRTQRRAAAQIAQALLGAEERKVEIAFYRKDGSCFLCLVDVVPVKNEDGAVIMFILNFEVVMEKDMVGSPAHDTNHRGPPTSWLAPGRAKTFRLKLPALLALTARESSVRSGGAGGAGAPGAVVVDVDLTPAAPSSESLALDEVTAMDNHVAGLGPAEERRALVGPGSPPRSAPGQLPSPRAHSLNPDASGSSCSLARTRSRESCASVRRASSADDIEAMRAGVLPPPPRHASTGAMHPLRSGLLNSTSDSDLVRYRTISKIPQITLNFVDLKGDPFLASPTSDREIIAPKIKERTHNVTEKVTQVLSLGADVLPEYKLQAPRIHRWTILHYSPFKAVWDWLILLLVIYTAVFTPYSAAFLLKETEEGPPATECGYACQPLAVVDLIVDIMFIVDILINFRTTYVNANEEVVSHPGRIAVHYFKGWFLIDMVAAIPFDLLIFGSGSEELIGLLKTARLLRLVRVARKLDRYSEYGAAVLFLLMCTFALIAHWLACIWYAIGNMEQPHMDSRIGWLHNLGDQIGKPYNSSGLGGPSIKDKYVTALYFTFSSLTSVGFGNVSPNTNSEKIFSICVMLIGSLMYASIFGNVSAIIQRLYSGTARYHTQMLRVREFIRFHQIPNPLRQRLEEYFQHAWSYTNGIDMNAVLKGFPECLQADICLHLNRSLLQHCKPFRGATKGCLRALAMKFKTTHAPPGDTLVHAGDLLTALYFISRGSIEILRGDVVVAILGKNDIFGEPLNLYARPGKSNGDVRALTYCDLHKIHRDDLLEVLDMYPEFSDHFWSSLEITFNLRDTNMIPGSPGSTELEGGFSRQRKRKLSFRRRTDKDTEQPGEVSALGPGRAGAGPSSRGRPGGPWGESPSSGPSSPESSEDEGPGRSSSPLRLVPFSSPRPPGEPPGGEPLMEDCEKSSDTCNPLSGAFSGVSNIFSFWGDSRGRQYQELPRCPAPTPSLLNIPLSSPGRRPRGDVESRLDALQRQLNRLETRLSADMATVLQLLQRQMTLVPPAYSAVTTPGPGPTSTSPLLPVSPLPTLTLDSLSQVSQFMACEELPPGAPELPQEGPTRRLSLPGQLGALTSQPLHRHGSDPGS

[33] = tested on: OVCAR-3; test: In vivo antiproliferative activity against human OVCAR-3 cells xenografted in po dosed nude Balc/c mouse tumor model assessed as reduction in tumor volume measured after 21 days; format: functional, organism-based; conditions: dose 10-20 mg/kg, time 21.0 day, TDE = time-dependent effect
[34] = Cmax in Beagle dog at 2 mg/kg, po and 1 mg/kg, iv; format: ADME, organism-based, Canis lupus familiaris; conditions: in vivo
[35] = AUC in Cynomolgus monkey at 2 mg/kg, po and 1 mg/kg, iv; format: ADME, organism-based, Macaca fascicularis; conditions: in vivo
[36] = Solubility in compound in FassIF; format: physicochemical
[37] = tested on: NCI-N87; test: Antiproliferative activity against human NCI-N87 cells assessed as chemiluminescence measured after 4 days incubation by Celltiter Glo assay; conditions: NCI-N87, 96 h
[38] = Half life in ICR mouse at 2 mg/kg, po and 1 mg/kg, iv; format: ADME, organism-based; conditions: in vivo
[39] = Half life in Sprague-Dawley rat at 2 mg/kg, po and 1 mg/kg, iv; format: ADME, organism-based; conditions: in vivo
[40] = AUClast in Sprague-Dawley rat at 2 mg/kg, po and 1 mg/kg, iv; format: ADME, organism-based; conditions: in vivo
[41] = tested on: HCC1954; test: Antiproliferative activity against human HCC1954 cells assessed as chemiluminescence measured after 4 days incubation by Celltiter Glo assay; conditions: HCC1954, 96 h
[42] = molecular target: T1, Cytochrome P450 3A4; test: Inhibition of CYP3A4 (unknown origin) assessed as reduction in testosterone metabolism; format: ADME
[43] = Half life in Balb/c mouse at 30 mg/kg, po; format: ADME, organism-based; conditions: in vivo
[44] = Half life in Cynomolgus monkey at 2 mg/kg, po and 1 mg/kg, iv; format: ADME, organism-based, Macaca fascicularis; conditions: in vivo
[45] = Cmax in Cynomolgus monkey at 2 mg/kg, po and 1 mg/kg, iv; format: ADME, organism-based, Macaca fascicularis; conditions: in vivo
[46] = Oral bioavailability in ICR mouse at 2 mg/kg; format: ADME, organism-based; conditions: in vivo
[47] = AUC in Balb/c mouse at 30 mg/kg, po; format: ADME, organism-based; conditions: in vivo
[48] = Half life in mouse liver microsomes; format: ADME, Microsome

In the case of `Cc1cc(NC(=O)c2ccc(NS(=O)(=O)CCO)cc2C2=CCC3(CC2)CC3)nc(N2CCC(F)(F)CC2)c1`, the half-life [1] is reported as 2.21 h, the AUC [2] is reported as 11500 ng·h/mL and the IC50 [3] is reported as 0.016 µM. The bioavailability [4] was 73%, the bioavailability [5] was 76.9% and the fraction unbound [6] was 0.0004. For the same compound, the EC50 [7] was 0.0647 µM, the Cmax [8] was 393 ng/mL and the IC50 [9] was 22.4 µM. For the same compound, the AUC [10] was 27700 ng·h/mL, the Papp B→A [11] was 0.49 ×10⁻⁶ cm/s and the Papp A→B [12] was less than 0.01 ×10⁻⁶ cm/s. For the same compound, the solubility [13] was 3.3 µM (≈ 1.85 µg/mL), the half-life [14] was 0.203 h and the half-life [15] was 1.03 h. It also gave a fraction unbound [16] of 0.0008, an inhibition in vivo at 30 mg/kg [17] of 113% and a bioavailability [18] of 40.2%. The Activity [19] was “Non-Toxic”, the half-life [20] was 3.38 h and the fraction unbound [21] was 0.0023. For the same compound, the Cmax [22] was 2160 ng/mL, the solubility [23] was 43.6 µM (≈ 24.4 µg/mL) and the Cmax [24] was 4040 ng/mL. For the same compound, the AUC [25] was 3340 ng·h/mL, the Cmax [26] was 552 ng/mL and the fraction unbound [27] was 0.0007. For the same compound, the half-life [28] was 0.38 h, the fraction unbound [29] was 0.0011 and the half-life [30] was 7.6 h. The IC50 [31] was 8.61 µM, the IC50 [32] was greater than 30 µM and the Activity [33] was “Tde”. The Cmax [34] was 1150 ng/mL, the AUC [35] was 2850 ng·h/mL and the solubility [36] was 18.5 µM (≈ 10.4 µg/mL). It also gave an IC50 [37] of 8.61 µM, a half-life [38] of 4.6 h and a half-life [39] of 2.7 h. The AUC(0-t) [40] was 5840 ng·h/mL, the IC50 [41] was 0.014 µM and the IC50 [42] was 23 µM. For the same compound, the half-life [43] was 6.38 h, the half-life [44] was 4.5 h and the Cmax [45] was 478 ng/mL. For the same compound, the bioavailability [46] was 68.2%, the AUC [47] was 54400 ng·h/mL and the half-life [48] was 1.47 h.
